Test results taken from publication PMC12337661, “PIEZO1 mechanical insensitivity in generalized lymphatic dysplasia with the potential for pharmacological rescue” (iScience, 2025).

Legend:
[1] = molecular target: T1, R2335Q hPIEZO1 (Homo sapiens, UniProt Q92508, R2335Q); experiment: Intracellular Ca2+ measurement (fura-2), T-REx-293 cells transiently transfected; format: cell-based; settings: 1 μM Y1, versus WT
T1 construct: expressed in transfected cells; host or cells: T-REx-293 (modified HEK293), transient
T1 sequence (Q92508 whole entry R2335Q): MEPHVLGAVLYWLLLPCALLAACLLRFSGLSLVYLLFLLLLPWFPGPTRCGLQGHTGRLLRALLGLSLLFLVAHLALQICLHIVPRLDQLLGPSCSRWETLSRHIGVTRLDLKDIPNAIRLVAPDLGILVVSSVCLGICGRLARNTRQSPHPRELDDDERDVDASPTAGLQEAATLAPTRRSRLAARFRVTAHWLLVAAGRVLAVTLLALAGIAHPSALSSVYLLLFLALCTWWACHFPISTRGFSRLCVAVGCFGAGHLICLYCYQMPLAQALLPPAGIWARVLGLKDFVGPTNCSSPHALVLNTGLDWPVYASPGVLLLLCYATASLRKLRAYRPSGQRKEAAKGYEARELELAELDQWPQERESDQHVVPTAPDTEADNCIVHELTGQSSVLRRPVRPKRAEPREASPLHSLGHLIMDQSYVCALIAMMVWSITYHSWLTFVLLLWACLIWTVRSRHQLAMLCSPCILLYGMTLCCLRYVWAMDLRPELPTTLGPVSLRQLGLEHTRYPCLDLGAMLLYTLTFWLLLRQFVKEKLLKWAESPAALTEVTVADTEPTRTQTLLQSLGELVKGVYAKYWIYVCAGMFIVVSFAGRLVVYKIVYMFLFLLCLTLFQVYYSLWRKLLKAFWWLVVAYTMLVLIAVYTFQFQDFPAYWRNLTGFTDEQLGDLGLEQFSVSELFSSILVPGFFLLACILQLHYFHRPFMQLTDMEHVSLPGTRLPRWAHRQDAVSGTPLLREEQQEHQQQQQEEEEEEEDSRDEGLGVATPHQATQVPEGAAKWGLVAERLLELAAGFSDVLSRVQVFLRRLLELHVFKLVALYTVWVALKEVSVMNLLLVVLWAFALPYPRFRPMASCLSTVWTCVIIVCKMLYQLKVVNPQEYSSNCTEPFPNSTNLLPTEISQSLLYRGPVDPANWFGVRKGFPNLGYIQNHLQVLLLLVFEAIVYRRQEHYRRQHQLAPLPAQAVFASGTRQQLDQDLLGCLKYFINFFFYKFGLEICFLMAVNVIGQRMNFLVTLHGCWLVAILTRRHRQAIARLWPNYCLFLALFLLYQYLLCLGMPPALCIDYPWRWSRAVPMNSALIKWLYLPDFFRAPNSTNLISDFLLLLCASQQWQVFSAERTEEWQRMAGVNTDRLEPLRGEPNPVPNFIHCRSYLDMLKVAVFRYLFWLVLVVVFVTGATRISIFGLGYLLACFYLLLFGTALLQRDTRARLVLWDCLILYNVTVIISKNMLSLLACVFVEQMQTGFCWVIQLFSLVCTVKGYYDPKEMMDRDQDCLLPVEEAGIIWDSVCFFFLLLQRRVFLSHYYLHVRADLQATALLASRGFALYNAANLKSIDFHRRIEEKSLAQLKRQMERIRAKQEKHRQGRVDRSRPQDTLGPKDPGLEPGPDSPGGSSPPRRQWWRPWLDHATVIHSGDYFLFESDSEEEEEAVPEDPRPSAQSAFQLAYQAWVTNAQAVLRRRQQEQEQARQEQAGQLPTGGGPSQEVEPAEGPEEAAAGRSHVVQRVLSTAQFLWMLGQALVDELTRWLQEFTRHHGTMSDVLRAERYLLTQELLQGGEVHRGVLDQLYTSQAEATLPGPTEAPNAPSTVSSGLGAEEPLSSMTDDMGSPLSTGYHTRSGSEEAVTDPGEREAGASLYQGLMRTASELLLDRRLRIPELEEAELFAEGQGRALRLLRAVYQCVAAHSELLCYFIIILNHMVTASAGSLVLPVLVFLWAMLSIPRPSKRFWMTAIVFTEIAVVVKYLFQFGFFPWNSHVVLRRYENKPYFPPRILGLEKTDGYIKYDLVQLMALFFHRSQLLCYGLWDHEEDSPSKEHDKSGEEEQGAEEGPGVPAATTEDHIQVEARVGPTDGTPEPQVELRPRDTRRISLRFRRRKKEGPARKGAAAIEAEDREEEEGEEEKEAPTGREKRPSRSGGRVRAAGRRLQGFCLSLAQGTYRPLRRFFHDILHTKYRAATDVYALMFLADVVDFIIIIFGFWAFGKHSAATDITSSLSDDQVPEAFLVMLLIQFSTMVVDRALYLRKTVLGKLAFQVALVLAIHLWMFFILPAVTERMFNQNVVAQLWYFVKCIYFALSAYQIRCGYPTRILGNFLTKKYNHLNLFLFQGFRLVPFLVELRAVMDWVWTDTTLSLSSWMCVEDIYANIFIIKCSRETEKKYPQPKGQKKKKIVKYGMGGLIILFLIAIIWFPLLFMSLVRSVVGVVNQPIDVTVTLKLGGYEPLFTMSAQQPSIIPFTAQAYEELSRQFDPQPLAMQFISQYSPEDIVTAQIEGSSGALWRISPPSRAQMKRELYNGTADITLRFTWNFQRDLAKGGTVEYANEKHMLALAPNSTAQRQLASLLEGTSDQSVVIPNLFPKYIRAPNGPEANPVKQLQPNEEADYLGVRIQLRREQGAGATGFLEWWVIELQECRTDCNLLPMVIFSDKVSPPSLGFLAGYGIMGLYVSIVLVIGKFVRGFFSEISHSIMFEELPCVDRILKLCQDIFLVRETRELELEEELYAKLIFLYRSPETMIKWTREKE
Experimental: HEK 293 cell line was transiently transfected at 90% confluence using Lipofectamine 2000 (Invitrogen) in OptiMEM (Gibco). Briefly: 500 ng endotoxin-free DNA per 100μL OptiMEM was prepared alongside 3μL Lipofectamine 2000 per 100μL OptiMEM (Gibco). Both were incubated for 5 min and then mixed, and then incubated at room temperature (21°C–24°C) for 20–30 min. Finally, the transfection mix was gently added dropwise to the cells and the cells were placed in a humidified incubator at 37°C supplied with 5% CO2 for 5 h. Medium was replaced afterward, and cells were used for experimentation 48 h after transfection.
For intracellular Ca^2+ assays, cells were plated at 80–90% confluence in 96-well plates 24 h prior to recordings (6–8 × 10^4 cells per well). […] Cells were washed with SBS and incubated at room temperature for 20 min prior to recordings. Equal volumes of 2x concentrated compounds were injected to test for acute channel activation. Pre-incubation with compounds occurred during the 20 min prior to recordings. To expose cell membranes to hypo-osmolality, an equal volume of hypotonic SBS (containing only 35 mM NaCl) was injected onto the cells. Measurements were made on a fluorescence plate reader (Flexstation III, Molecular Devices) at room temperature (21 ± 2°C). Fura-2 was excited at 340 nm and 380 nm and emitted light collected at 510 nm, with measurements shown as the change in fluorescence (F) ratio (ΔF340/380).
KC41 (Dooku1) was prepared as described.[28] All purchased chemicals and solvents were used without further purification unless otherwise stated. All compounds were at least 95% pure by 1H NMR. 1H Nuclear Magnetic Resonance spectra were recorded at 500 MHz using a Bruker DRX 500 instrument or at 400 MHz using a Bruker DPX 400. 1H spectra are referenced based on the residual proton in the solvent (e.g., the CHCl3, 0.01% in 99.99% CDCl3). Coupling constants (J) are reported to the nearest 0.1 Hz. 13C NMR spectra were recorded at 125 MHz on 500 MHz spectrometers or at 100 MHz on 400 MHz spectrometers. LC-MS was performed on a Bruker Daltronics running a gradient of increasing acetonitrile (5–95%) in H2O both containing 0.1% formic acid at 1 mL.min^−1, on a short path C18 reverse phase column, detecting compounds with both a diode array detector and a Bruker mass spectrum analyser. HRMS was performed on a Bruker Daltonics micrOTOF using positive electrospray ionisation (ES+). Automated column chromatograph was carried out using a Biotage Isolera Four, using either Sfär Silica D or KP-Silica cartridges. HPLC was performed on an Agilent 1290 Infinity Series equipped with a UV detector and Hyperprep C18 reverse phase column. Key to NMR abbreviations: s (singlet), br s (broad singlet) d (doublet), dd (doublet of doublets), ddd (doublet of doublets of doublets), t (triplet), dt (doublet of triples), q (quartet), m (multiplet), ap. t (apparent triplet). For experiments, Yoda1 and its analogues were prepared as 10 mM stock solutions in 100% dimethyl sulfoxide (DMSO) before serial dilution in DMSO and final dilution in aqueous solution. Cells were exposed to 0.1% DMSO for all concentrations of the compounds from 0 to 10 μM.

[2] = molecular target: T2, R2351Q mPIEZO1 (Mus musculus, UniProt E2JF22, R2351Q); experiment: Intracellular Ca2+ measurement (fura-2), T-REx-293 cells stably transfected; format: cell-based
T2 construct: expressed in transfected cells
T2 sequence (E2JF22 whole entry R2351Q): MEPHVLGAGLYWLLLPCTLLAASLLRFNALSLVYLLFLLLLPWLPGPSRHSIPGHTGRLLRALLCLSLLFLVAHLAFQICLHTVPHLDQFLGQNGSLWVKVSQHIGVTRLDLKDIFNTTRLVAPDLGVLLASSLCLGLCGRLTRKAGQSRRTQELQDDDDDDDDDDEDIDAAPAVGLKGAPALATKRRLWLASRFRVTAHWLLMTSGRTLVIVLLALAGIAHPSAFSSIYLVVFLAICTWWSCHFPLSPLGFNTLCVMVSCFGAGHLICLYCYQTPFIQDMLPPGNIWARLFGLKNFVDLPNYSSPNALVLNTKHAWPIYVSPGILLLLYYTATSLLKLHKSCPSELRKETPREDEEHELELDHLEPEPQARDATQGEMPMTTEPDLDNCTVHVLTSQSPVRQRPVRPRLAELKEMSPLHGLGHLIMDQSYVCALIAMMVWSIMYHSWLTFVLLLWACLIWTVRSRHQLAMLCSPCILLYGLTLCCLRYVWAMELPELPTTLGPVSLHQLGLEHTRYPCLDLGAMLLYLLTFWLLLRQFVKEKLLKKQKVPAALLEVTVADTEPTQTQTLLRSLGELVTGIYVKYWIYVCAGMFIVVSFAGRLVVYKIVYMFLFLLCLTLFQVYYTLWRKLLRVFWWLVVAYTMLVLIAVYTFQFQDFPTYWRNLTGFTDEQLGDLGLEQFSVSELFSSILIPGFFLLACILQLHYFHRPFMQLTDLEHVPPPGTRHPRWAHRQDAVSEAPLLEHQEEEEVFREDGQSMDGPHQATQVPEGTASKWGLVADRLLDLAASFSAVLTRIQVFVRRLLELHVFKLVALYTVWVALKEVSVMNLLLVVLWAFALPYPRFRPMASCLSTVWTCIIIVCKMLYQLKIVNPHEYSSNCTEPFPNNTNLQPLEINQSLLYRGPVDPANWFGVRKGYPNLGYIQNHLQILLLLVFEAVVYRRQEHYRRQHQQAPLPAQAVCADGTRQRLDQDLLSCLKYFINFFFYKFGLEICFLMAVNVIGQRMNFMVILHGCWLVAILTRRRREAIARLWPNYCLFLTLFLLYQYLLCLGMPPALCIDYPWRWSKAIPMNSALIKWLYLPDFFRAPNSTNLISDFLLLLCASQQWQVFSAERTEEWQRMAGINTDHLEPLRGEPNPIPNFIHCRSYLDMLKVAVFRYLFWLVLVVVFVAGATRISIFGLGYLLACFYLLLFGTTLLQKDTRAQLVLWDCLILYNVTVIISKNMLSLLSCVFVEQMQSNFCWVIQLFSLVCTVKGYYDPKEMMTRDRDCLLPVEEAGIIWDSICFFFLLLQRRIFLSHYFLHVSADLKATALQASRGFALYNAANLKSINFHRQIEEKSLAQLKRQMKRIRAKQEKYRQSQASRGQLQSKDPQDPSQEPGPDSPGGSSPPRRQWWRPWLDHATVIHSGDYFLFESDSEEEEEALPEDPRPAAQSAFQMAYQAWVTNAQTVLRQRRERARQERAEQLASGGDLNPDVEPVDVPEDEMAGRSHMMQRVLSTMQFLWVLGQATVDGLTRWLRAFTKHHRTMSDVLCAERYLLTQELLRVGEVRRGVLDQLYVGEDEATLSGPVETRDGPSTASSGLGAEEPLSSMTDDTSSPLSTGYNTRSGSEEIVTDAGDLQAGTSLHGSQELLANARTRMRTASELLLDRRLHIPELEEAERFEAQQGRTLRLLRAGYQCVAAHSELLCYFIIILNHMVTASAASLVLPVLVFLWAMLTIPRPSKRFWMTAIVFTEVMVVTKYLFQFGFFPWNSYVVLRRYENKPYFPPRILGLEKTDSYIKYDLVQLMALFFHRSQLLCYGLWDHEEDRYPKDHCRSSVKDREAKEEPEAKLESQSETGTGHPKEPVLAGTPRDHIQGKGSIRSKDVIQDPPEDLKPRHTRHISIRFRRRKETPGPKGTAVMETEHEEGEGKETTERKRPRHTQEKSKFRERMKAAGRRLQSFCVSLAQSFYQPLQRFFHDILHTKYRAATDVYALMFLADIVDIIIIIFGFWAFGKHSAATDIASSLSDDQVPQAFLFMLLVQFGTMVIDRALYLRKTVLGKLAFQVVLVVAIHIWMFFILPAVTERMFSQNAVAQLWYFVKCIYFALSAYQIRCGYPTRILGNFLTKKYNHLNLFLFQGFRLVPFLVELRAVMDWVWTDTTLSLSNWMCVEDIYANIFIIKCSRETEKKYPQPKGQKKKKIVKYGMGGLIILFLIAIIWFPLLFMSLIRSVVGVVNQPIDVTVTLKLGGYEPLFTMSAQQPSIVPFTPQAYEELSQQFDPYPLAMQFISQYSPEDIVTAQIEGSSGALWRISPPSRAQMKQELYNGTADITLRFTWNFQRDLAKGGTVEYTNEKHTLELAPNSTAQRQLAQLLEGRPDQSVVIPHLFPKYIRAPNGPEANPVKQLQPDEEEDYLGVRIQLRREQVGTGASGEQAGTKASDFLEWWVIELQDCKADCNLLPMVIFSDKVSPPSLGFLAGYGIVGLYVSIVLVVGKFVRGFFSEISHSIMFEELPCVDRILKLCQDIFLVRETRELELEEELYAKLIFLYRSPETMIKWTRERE

SMILES: Clc1cccc(Cl)c1CSc1nnc(-c2cnccn2)s1 [Yoda1]
- Effect on hPIEZO1 channel function [1]: reduced 1 μM Y1 effect
- Mean (Ca2+ signal time course, Figure 4f) ([2]; R2351Q, 0.3 µM, time 0 s): -0.00579
- Mean (Ca2+ signal time course, Figure 4f) ([2]; R2351Q, 0.3 µM, time 5 s): 0.00313
- Mean (Ca2+ signal time course, Figure 4f) ([2]; R2351Q, 0.3 µM, time 10 s): -0.01466
- Mean (Ca2+ signal time course, Figure 4f) ([2]; R2351Q, 0.3 µM, time 15 s): 0.00749
- Mean (Ca2+ signal time course, Figure 4f) ([2]; R2351Q, 0.3 µM, time 20 s): 0.00732
- Mean (Ca2+ signal time course, Figure 4f) ([2]; R2351Q, 0.3 µM, time 25 s): 0.00251
- Mean (Ca2+ signal time course, Figure 4f) ([2]; R2351Q, 0.3 µM, time 30 s): -0.3502
- Mean (Ca2+ signal time course, Figure 4f) ([2]; R2351Q, 0.3 µM, time 35 s): 0.104
- Mean (Ca2+ signal time course, Figure 4f) ([2]; R2351Q, 0.3 µM, time 40 s): 0.09692
- Mean (Ca2+ signal time course, Figure 4f) ([2]; R2351Q, 0.3 µM, time 45 s): 0.1007
- Mean (Ca2+ signal time course, Figure 4f) ([2]; R2351Q, 0.3 µM, time 50 s): 0.1032
- Mean (Ca2+ signal time course, Figure 4f) ([2]; R2351Q, 0.3 µM, time 55 s): 0.1237
- Mean (Ca2+ signal time course, Figure 4f) ([2]; R2351Q, 0.3 µM, time 60 s): 0.09438
- Mean (Ca2+ signal time course, Figure 4f) ([2]; R2351Q, 0.3 µM, time 65 s): 0.1134
- Mean (Ca2+ signal time course, Figure 4f) ([2]; R2351Q, 0.3 µM, time 70 s): 0.1058
- Mean (Ca2+ signal time course, Figure 4f) ([2]; R2351Q, 0.3 µM, time 75 s): 0.1024
- Mean (Ca2+ signal time course, Figure 4f) ([2]; R2351Q, 0.3 µM, time 80 s): 0.1081
- Mean (Ca2+ signal time course, Figure 4f) ([2]; R2351Q, 0.3 µM, time 85 s): 0.0998
- Mean (Ca2+ signal time course, Figure 4f) ([2]; R2351Q, 0.3 µM, time 90 s): 0.09979
- Mean (Ca2+ signal time course, Figure 4f) ([2]; R2351Q, 0.3 µM, time 95 s): 0.1117
- Mean (Ca2+ signal time course, Figure 4f) ([2]; R2351Q, 0.3 µM, time 100 s): 0.1219
- Mean (Ca2+ signal time course, Figure 4f) ([2]; R2351Q, 0.3 µM, time 105 s): 0.1074
- Mean (Ca2+ signal time course, Figure 4f) ([2]; R2351Q, 0.3 µM, time 110 s): 0.1111
- Mean (Ca2+ signal time course, Figure 4f) ([2]; R2351Q, 0.3 µM, time 115 s): 0.1145
- Mean (Ca2+ signal time course, Figure 4f) ([2]; R2351Q, 0.3 µM, time 120 s): 0.1043
- Mean (Ca2+ signal time course, Figure 4f) ([2]; R2351Q, 0.3 µM, time 125 s): 0.1036
- Mean (Ca2+ signal time course, Figure 4f) ([2]; R2351Q, 0.3 µM, time 130 s): 0.08711
- Mean (Ca2+ signal time course, Figure 4f) ([2]; R2351Q, 3 µM, time 0 s): -0.0026
- Mean (Ca2+ signal time course, Figure 4f) ([2]; R2351Q, 3 µM, time 5 s): -0.00676
- Mean (Ca2+ signal time course, Figure 4f) ([2]; R2351Q, 3 µM, time 10 s): -0.01186
- Mean (Ca2+ signal time course, Figure 4f) ([2]; R2351Q, 3 µM, time 15 s): -0.00542
- Mean (Ca2+ signal time course, Figure 4f) ([2]; R2351Q, 3 µM, time 20 s): 0.01045
- Mean (Ca2+ signal time course, Figure 4f) ([2]; R2351Q, 3 µM, time 25 s): 0.0162
- Mean (Ca2+ signal time course, Figure 4f) ([2]; R2351Q, 3 µM, time 30 s): -0.5301
- Mean (Ca2+ signal time course, Figure 4f) ([2]; R2351Q, 3 µM, time 35 s): -0.09017
- Mean (Ca2+ signal time course, Figure 4f) ([2]; R2351Q, 3 µM, time 40 s): 0.3419
- Mean (Ca2+ signal time course, Figure 4f) ([2]; R2351Q, 3 µM, time 45 s): 0.4568
- Mean (Ca2+ signal time course, Figure 4f) ([2]; R2351Q, 3 µM, time 50 s): 0.5783
- Mean (Ca2+ signal time course, Figure 4f) ([2]; R2351Q, 3 µM, time 55 s): 0.623
- Mean (Ca2+ signal time course, Figure 4f) ([2]; R2351Q, 3 µM, time 60 s): 0.705
- Mean (Ca2+ signal time course, Figure 4f) ([2]; R2351Q, 3 µM, time 65 s): 0.7592
- Mean (Ca2+ signal time course, Figure 4f) ([2]; R2351Q, 3 µM, time 70 s): 0.7946
- Mean (Ca2+ signal time course, Figure 4f) ([2]; R2351Q, 3 µM, time 75 s): 0.8127
- Mean (Ca2+ signal time course, Figure 4f) ([2]; R2351Q, 3 µM, time 80 s): 0.8608
- Mean (Ca2+ signal time course, Figure 4f) ([2]; R2351Q, 3 µM, time 85 s): 0.9118
- Mean (Ca2+ signal time course, Figure 4f) ([2]; R2351Q, 3 µM, time 90 s): 0.9125
- Mean (Ca2+ signal time course, Figure 4f) ([2]; R2351Q, 3 µM, time 95 s): 0.9634
- Mean (Ca2+ signal time course, Figure 4f) ([2]; R2351Q, 3 µM, time 100 s): 1.007
- Mean (Ca2+ signal time course, Figure 4f) ([2]; R2351Q, 3 µM, time 105 s): 0.9869
- Mean (Ca2+ signal time course, Figure 4f) ([2]; R2351Q, 3 µM, time 110 s): 1.018
- Mean (Ca2+ signal time course, Figure 4f) ([2]; R2351Q, 3 µM, time 115 s): 0.9551
- Mean (Ca2+ signal time course, Figure 4f) ([2]; R2351Q, 3 µM, time 120 s): 0.9921
- Mean (Ca2+ signal time course, Figure 4f) ([2]; R2351Q, 3 µM, time 125 s): 1.006
- Mean (Ca2+ signal time course, Figure 4f) ([2]; R2351Q, 3 µM, time 130 s): 0.9688
- Mean normalise fluorescence ([2]; R2351Q, 20 min exposure, Yoda1 0.03 µM, Figure 4d): 0.08092
- Mean normalise fluorescence ([2]; R2351Q, 20 min exposure, Yoda1 0.1 µM, Figure 4d): -0.0159
- Mean normalise fluorescence ([2]; R2351Q, 20 min exposure, Yoda1 0.3 µM, Figure 4d): 0.3248
- Mean normalise fluorescence ([2]; R2351Q, 20 min exposure, Yoda1 1 µM, Figure 4d): 0.9747
- Mean normalise fluorescence ([2]; R2351Q, 20 min exposure, Yoda1 3 µM, Figure 4d): 1
- Mean normalise fluorescence ([2]; R2351Q, 20 min exposure, Yoda1 10 µM, Figure 4d): 0.9987
- EC50 ([2]; long (20 min) exposure, normalized to 3 μM Yoda1): 420 nM
- Mean normalise fluorescence ([2]; short 1.5-min exposure, 0.03 µM): 0.00392
- Mean normalise fluorescence ([2]; short 1.5-min exposure, 0.1 µM): 5.49E-04
- Mean normalise fluorescence ([2]; short 1.5-min exposure, 0.3 µM): 0.02154
- Mean normalise fluorescence ([2]; short 1.5-min exposure, 1 µM): 0.1259
- Mean normalise fluorescence ([2]; short 1.5-min exposure, 3 µM): 0.401
- Mean normalise fluorescence ([2]; short 1.5-min exposure, 5 µM): 0.6595
- Mean normalise fluorescence ([2]; short 1.5-min exposure, 10 µM): 1
- Effect on mPIEZO1 channel function ([2]; versus WT): loss of MA: LOF; reduced Y1 potency
